For one cell line, relative viability results are on record in the supplement of paper PMC10307832.

Assay in all cases: relative viability (nuclei count vs DMSO), 5 days (fraction); higher = more cells survive
Compound in test [1]: CC1=C(C(=NN1)C)CC2=C(C3=C(S2)N(C(=O)N(C3=O)C)CC(C)C)C(=O)N4C[C@@H](CO4)O + COc1cc2c(Oc3ccc(NC(=O)C4(C(=O)Nc5ccc(F)cc5)CC4)cc3F)ccnc2cc1OCCCN1CCOCC1 [Foretinib] (partner 0.25 µM)
Summed up:
(§1)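 After 5 days of treatment, lung cancer cells in 1536-well plates were fixed and stained in a single step (final 0.05% Triton X-100, 1% formaldehyde, 1 ug/ml Hoechst) and their nuclei counted on 4× images. Treatment had been applied by pin tool the day after seeding as one drug alone or as a fixed anchor-drug dose with five library-drug doses (not always all listed) in √10 steps. Relative viability is the nuclei count of treated wells divided by that of vehicle wells, and values are medians of duplicate plates.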

Compound in the test “IDH-C35 + Pictilisib”: Cc1ccccc1C(C(=O)NC1CCCCC1)N(C(=O)Cn1ccnc1C)c1cccc(F)c1 [IDH-C35] + CS(=O)(=O)N1CCN(Cc2cc3nc(-c4cccc5[nH]ncc45)nc(N4CCOCC4)c3s2)CC1 [Pictilisib] (partner 1 µM)
The method, boiled down:
as §1

Compound in the test “IDH-C35 + Crizotinib”: Cc1ccccc1C(C(=O)NC1CCCCC1)N(C(=O)Cn1ccnc1C)c1cccc(F)c1 [IDH-C35] + C[C@@H](Oc1cc(-c2cnn(C3CCNCC3)c2)cnc1N)c1c(Cl)ccc(F)c1Cl [Crizotinib] (partner 1 µM)
The method, boiled down:
as §1

Compound in the test “IDH-C35 + Linsitinib”: Cc1ccccc1C(C(=O)NC1CCCCC1)N(C(=O)Cn1ccnc1C)c1cccc(F)c1 [IDH-C35] + C[C@]1(O)C[C@@H](c2nc(-c3ccc4ccc(-c5ccccc5)nc4c3)c3c(N)nccn32)C1 [Linsitinib] (partner 1 µM)
The method, boiled down: as §1

Turning to UMC-11, the relative viability was found to be 1.16 in test [1] (first compound 0.0025 µM); 1.17 in test [1] (first compound 0.007906 µM); 0.997 in test [1] (first compound 0.025 µM); 1.07 in test [1] (first compound 0.07906 µM); 1.08 in test [1] (first compound 0.25 µM); 0.874 in the test with IDH-C35 + Pictilisib (first compound 0.08 µM). Also, the relative viability with IDH-C35 + Pictilisib (first compound 0.253 µM) turned out to be 0.794; with IDH-C35 + Pictilisib (first compound 0.8 µM), 0.759; with IDH-C35 + Pictilisib (first compound 2.53 µM), 0.79; with IDH-C35 + Pictilisib (first compound 8 µM), 0.889; with IDH-C35 + Crizotinib (first compound 0.08 µM), 0.578; with IDH-C35 + Crizotinib (first compound 0.253 µM), 0.56. For the same cell line, the relative viability turned out to be 0.481 with IDH-C35 + Crizotinib (first compound 0.8 µM); 0.576 in the test with IDH-C35 + Crizotinib (first compound 2.53 µM); 0.629 with IDH-C35 + Crizotinib (first compound 8 µM); 0.942 in the test with IDH-C35 + Linsitinib (first compound 0.08 µM); 1.06 in the test with IDH-C35 + Linsitinib (first compound 0.253 µM); 1.04 in the test with IDH-C35 + Linsitinib (first compound 0.8 µM). For the same cell line, the relative viability amounted to 1.04 with IDH-C35 + Linsitinib (first compound 2.53 µM) and 0.971 with IDH-C35 + Linsitinib (first compound 8 µM).
